Measured values as given in paper PMC11923837, “Proline-Modified (RW)n Peptides: Enhancing the Antimicrobial Efficacy and Selectivity against Multidrug-Resistant Pathogens” (ACS Omega, 2025).
Where two headings read alike, the source gives them in different places. No end group written: not given here.

Key:
[1] = system: Acinetobacter baumannii ATCC 19606; test: microbe, parasite or virus in culture; details: for MIC: Acinetobacter baumannii, ATCC19606, 18 h, read-out: MIC against Ab; for MIC, Ab (Table 1S): supplement Table 1S, unit not given (main-text tables: μg/mL), capital letter component 95 mg
Protocol: (§1) Antimicrobial activity was evaluated using the Community for Open Antimicrobial Drug Discovery (CO-ADD) screening platform. Minimum inhibitory concentrations (MICs) were determined against the following five bacterial strains: Escherichia coli (E. coli) ATCC 25922, Klebsiella pneumoniae ATCC 700603, Acinetobacter baumannii ATCC 19606, Pseudomonas aeruginosa ATCC 27853, and Staphylococcus aureus ATCC 43300.
(§2) Bacteria were cultured in cation-adjusted Mueller–Hinton broth (CAMHB) at 37 °C overnight. Cultures were diluted 40-fold in fresh broth and incubated at 37 °C for 1.5–3 h. Mid-log phase cultures were then diluted and added to the compound-containing plates, giving a final cell density of 5 × 10^5 CFU/mL in a total volume of 50 μL. Plates were incubated at 37 °C for 18 h without shaking.
(§3) Bacterial growth inhibition was determined by measuring the absorbance at 600 nm (OD600) using a Tecan M1000 Pro monochromator plate reader. The percentage of growth inhibition was calculated using negative (media only) and positive (bacteria without inhibitors) controls. Significance was determined by modified Z scores calculated using the median and MAD of the samples on the same plate. Samples with inhibition values above 80% and Z scores above 2.5 for either replicate were classified as active.
(§4) The fractional inhibitory concentration (FIC) index was calculated to determine synergy, additivity, or antagonism.
(§5) Colistin and VAN were used as positive bacterial inhibitor standards for Gram-negative and Gram-positive bacteria, respectively. The quality control (QC) of the assays was determined by the antimicrobial controls and the Z’ factor (using positive and negative controls).
(§6) Percentage growth inhibition was calculated using negative (media only) and positive (bacteria without inhibitors) controls. Modified Z scores were used to determine the significance of the inhibition values. Samples with inhibition values of above 80% and Z scores of above 2.5 for either replicate were classified as active. Data are presented as the mean ± standard deviation from at least three independent experiments.

[2] = system: Escherichia coli (E. coli) ATCC 25922; test: microbe, parasite or virus in culture; details: for MIC: Escherichia coli, ATCC25922, 18 h, read-out: MIC against E. coli; for MIC, Ec (Table 1S): supplement Table 1S, unit not given (main-text tables: μg/mL), capital letter component 95 mg
Protocol: as §1, §2, §3, §4, §5, §6

[3] = system: Pseudomonas aeruginosa ATCC 27853; test: microbe, parasite or virus in culture; details: for MIC: Pseudomonas aeruginosa, ATCC27853, 18 h, read-out: MIC against Pa; for MIC, Pa (Table 1S): supplement Table 1S, unit not given (main-text tables: μg/mL), capital letter component 95 mg
Protocol: as §1, §2, §3, §4, §5, §6

[4] = system: Staphylococcus aureus ATCC 43300 (MRSA); test: microbe, parasite or virus in culture; details: for MIC: Staphylococcus aureus, read-out: MIC against MRSA; for MIC, Sa (Table 1S): supplement Table 1S, unit not given (main-text tables: μg/mL), capital letter component 95 mg
Protocol: as §1, §2, §3, §4, §5, §6

[5] = system: human embryonic kidney (HEK293) cells; test: Cytotoxicity, resazurin reduction assay; assay type: cell-based
Protocol: (§7) Cytotoxicity was evaluated using human embryonic kidney (HEK293) and human red blood cells (RBCs). HEK293 cells were cultured in DMEM supplemented with 10% FBS. Cells were seeded in 384-well plates and incubated with peptides for 24 h. Cell viability was assessed using the resazurin reduction assay. Hemolysis assays were performed using fresh human RBCs incubated with peptides for 1 h at 37 °C.

[6] = system: human red blood cells (RBCs); test: Hemolysis assay; assay type: cell-based
Protocol: as §7

[7] = system: Klebsiella pneumoniae ATCC 700603; test: microbe, parasite or virus in culture; details: for MIC against Kp: ATCC 700603, 18 h; for MIC, Kp (Table 1S): supplement Table 1S, unit not given (main-text tables: μg/mL), capital letter component 95 mg, minor letter component 5 mg
Protocol: as §1, §2, §3, §4, §5, §6

[8] = system: Gram-positive and Gram-negative bacteria; test: Structure-activity summary: antimicrobial activity (Table 5); assay type: cell-based; details: summary in words
human cells = assay type: cell-based
[9] = summary in words, Table 5; earlier biophysical studies ref 20; cited from earlier work
From the text: Table 5 Structure–Activity Relationships of (RW)n Peptides ^a | column: Thermal stability

[10] = S. aureus ATCC 43300, CAMHB, 5 × 10^5 CFU/mL, 37 °C, 18 h, OD600, mixtures: capital letter component 95 mg, minor letter component 5 mg

CC1(C)S[C@@H]2[C@H](NC(=O)[C@H](N)c3ccccc3)C(=O)N2[C@H]1C(=O)O [AMP, ampicillin, reference compound]
MIC [1]: > 32 µg/mL
MIC, Ab (Table 1S) ([1]; minor letter component 5 mg): > 32
MIC [2]: 8 µg/mL
MIC, Ec (Table 1S) ([2]; minor letter component 5 mg): 8
MIC [3]: > 32 µg/mL
MIC, Pa (Table 1S) ([3]; minor letter component 5 mg): > 32
MIC ([4]; 18 h): 32 µg/mL
MIC, Sa (Table 1S) ([4]; minor letter component 5 mg): 32
MIC, Hk (Table 1S) [5]: > 32 µg/mL
MIC, Hm (Table 1S) [6]: > 32

CC[C@H](C)[C@H](N)C(=O)N[C@@H](CC(C)C)C(=O)N1CCC[C@H]1C(=O)N[C@@H](Cc1c[nH]c2ccccc12)C(=O)N[C@@H](CCCCN)C(=O)N[C@@H](Cc1c[nH]c2ccccc12)C(=O)N1CCC[C@H]1C(=O)N[C@@H](Cc1c[nH]c2ccccc12)C(=O)N[C@@H](Cc1c[nH]c2ccccc12)C(=O)N1CCC[C@H]1C(=O)N[C@@H](Cc1c[nH]c2ccccc12)C(=O)N[C@@H](CCCN=C(N)N)C(=O)N[C@@H](CCCN=C(N)N)C(N)=O [Indolicidin, reference compound]
RBC hemolysis MIC ([6]; fresh human RBCs, 1 h, 37 °C): >32 µg/mL

N=C(N)NCCC[C@H](NC(=O)[C@H](Cc1c[nH]c2ccccc12)NC(=O)[C@H](CCCNC(=N)N)NC(=O)[C@H](Cc1c[nH]c2ccccc12)NC(=O)[C@H](CCCNC(=N)N)NC(=O)[C@H](Cc1c[nH]c2ccccc12)NC(=O)[C@H](CCCNC(=N)N)NC(=O)[C@H](Cc1c[nH]c2ccccc12)NC(=O)[C@H](CCCNC(=N)N)NC(=O)[C@H](Cc1c[nH]c2ccccc12)NC(=O)[C@@H](N)CCCNC(=N)N)C(=O)N[C@@H](Cc1c[nH]c2ccccc12)C(N)=O [RW6]
MIC against Ab ([1]; ATCC 19606, 18 h): >32 µg/mL
MIC, Ab (Table 1S) ([1]; minor letter component 5 mg): > 32
MIC against E. coli ([2]; ATCC 25922, 18 h): ≤0.25 µg/mL
MIC, Ec (Table 1S) ([2]; minor letter component 5 mg): <= 0.25
MIC against Kp [7]: >32 µg/mL
MIC, Kp (Table 1S) [7]: > 32
MIC against Pa ([3]; ATCC 27853, 18 h): >32 µg/mL
MIC, Pa (Table 1S) ([3]; minor letter component 5 mg): > 32
MIC against MRSA ([4]; ATCC 43300, 18 h): ≤0.25 µg/mL
MIC, Sa (Table 1S) ([4]; minor letter component 5 mg): <= 0.25
MIC, Hk (Table 1S) [5]: > 32 µg/mL
HEK293 cells MIC ([5]; 24 h): >32 µg/mL
MIC, Hm (Table 1S) [6]: <= 0.25
RBC hemolysis MIC [6]: ≤0.25 µg/mL
Antimicrobial activity [8]: High
Toxicity (human cells): Moderate
Thermal stability [9]: High

CN[C@H](CC(C)C)C(=O)N[C@H]1C(=O)N[C@@H](CC(N)=O)C(=O)N[C@H]2C(=O)N[C@H]3C(=O)N[C@H](C(=O)N[C@H](C(=O)O)c4cc(O)cc(O)c4-c4cc3ccc4O)[C@H](O)c3ccc(c(Cl)c3)Oc3cc2cc(c3O[C@@H]2O[C@H](CO)[C@@H](O)[C@H](O)[C@H]2O[C@H]2C[C@](C)(N)[C@H](O)[C@H](C)O2)Oc2ccc(cc2Cl)[C@H]1O [VAN, vancomycin, reference compound]
MIC [1]: > 32 µg/mL
MIC, Ab (Table 1S) ([1]; minor letter component 5 mg): > 32
MIC [2]: > 32 µg/mL
MIC, Ec (Table 1S) ([2]; minor letter component 5 mg): > 32
MIC ([7]; Klebsiella pneumoniae, ATCC700603, 18 h, read-out: MIC against Kp): > 32 µg/mL
MIC, Kp (Table 1S) [7]: > 32
MIC [3]: > 32 µg/mL
MIC, Pa (Table 1S) ([3]; minor letter component 5 mg): > 32
MIC ([4]; 18 h): ≤ 0.25 µg/mL
MIC, Sa (Table 1S) ([4]; minor letter component 5 mg): <= 0.25
HEK293 cytotoxic concentration ([5]; supplement Table 1S, Hk = HEK293 cytotoxicity, 24 h, resazurin, unit not given (main-text tables: μg/mL), capital 95 mg, minor letter 5 mg): > 32 µg/mL
MIC, Hm (Table 1S) ([6]; supplement Table 1S, Hm = human RBC hemolysis, 1 h, 37 °C, unit not given (main-text tables: μg/mL), capital 95 mg, minor letter 5 mg, in µg/mL): 28.69

RWRWPRWRWPRWRW-NH2 [RW6-2P]
MIC against Ab ([1]; ATCC 19606, 18 h): 2 µg/mL
MIC, Ab (Table 1S) ([1]; minor letter component 5 mg): 2
MIC against E. coli ([2]; ATCC 25922, 18 h): 16 µg/mL
MIC, Ec (Table 1S) ([2]; minor letter component 5 mg): 16
MIC against Kp [7]: >32 µg/mL
MIC, Kp (Table 1S) [7]: > 32
MIC against Pa ([3]; ATCC 27853, 18 h): ≤0.25 µg/mL
MIC, Pa (Table 1S) ([3]; minor letter component 5 mg): <= 0.25
MIC against MRSA ([4]; ATCC 43300, 18 h): ≤0.25 µg/mL
MIC against MRSA [4, 10]: ≤ 0.25 µg/mL
MIC, Sa (Table 1S) ([4]; minor letter component 5 mg): <= 0.25
MIC, Hk (Table 1S) [5]: > 32 µg/mL
HEK293 cells MIC ([5]; 24 h): >32 µg/mL
MIC, Hm (Table 1S) [6]: > 32
RBC hemolysis MIC [6]: >32 µg/mL

RWRWRWRW-NH2 [RW4]
MIC against Ab ([1]; ATCC 19606, 18 h): >32 µg/mL
MIC, Ab (Table 1S) ([1]; minor letter component 5 mg): > 32
MIC, Ec (Table 1S) ([2]; minor letter component 5 mg): > 32
MIC against Kp [7]: >32 µg/mL
MIC, Kp (Table 1S) [7]: > 32
MIC against Pa ([3]; ATCC 27853, 18 h): >32 µg/mL
MIC, Pa (Table 1S) ([3]; minor letter component 5 mg): > 32
MIC against MRSA ([4]; ATCC 43300, 18 h): 8 µg/mL
MIC, Sa (Table 1S) ([4]; minor letter component 5 mg): 8
MIC, Hk (Table 1S) [5]: > 32 µg/mL
HEK293 cells MIC ([5]; 24 h): >32 µg/mL
MIC, Hm (Table 1S) [6]: > 32
RBC hemolysis MIC [6]: >32 µg/mL
Antimicrobial activity [8]: Moderate
Toxicity (human cells): Low
Thermal stability [9]: Low

RWRWRWRWRWRWRWRW-NH2 [RW8]
MIC against Ab ([1]; ATCC 19606, 18 h): 32 µg/mL
MIC, Ab (Table 1S) ([1]; minor letter component 5 mg): 32
MIC against E. coli ([2]; ATCC 25922, 18 h): 32 µg/mL
MIC, Ec (Table 1S) ([2]; minor letter component 5 mg): 32
MIC against Kp [7]: >32 µg/mL
MIC, Kp (Table 1S) [7]: > 32
MIC against Pa ([3]; ATCC 27853, 18 h): >32 µg/mL
MIC, Pa (Table 1S) ([3]; minor letter component 5 mg): > 32
MIC against MRSA ([4]; ATCC 43300, 18 h): 2 µg/mL
MIC, Sa (Table 1S) ([4]; minor letter component 5 mg): 2
MIC, Hk (Table 1S) [5]: > 32 µg/mL
HEK293 cells MIC ([5]; 24 h): >32 µg/mL
MIC, Hm (Table 1S) [6]: 0.4523
RBC hemolysis MIC [6]: 0.4523 µg/mL
Antimicrobial activity [8]: High (Gram+), Moderate (Gram−)
Toxicity (human cells): Moderate
Thermal stability [9]: High

penicillin [reference compound]
MIC against Ab ([1]; A. baumannii ATCC 19606, CAMHB, 5 × 10^5 CFU/mL, 37 °C, 18 h, OD600, mixtures: capital letter component 95 mg, minor letter component 5 mg): >32 µg/mL
MIC, Ab (Table 1S) ([1]; minor letter component 5 mg): > 32
MIC against E. coli ([2]; E. coli ATCC 25922, CAMHB, 5 × 10^5 CFU/mL, 37 °C, 18 h, OD600, mixtures: capital letter component 95 mg, minor letter component 5 mg): 32 µg/mL
MIC, Ec (Table 1S) ([2]; minor letter component 5 mg): 32
MIC against Pa ([3]; P. aeruginosa ATCC 27853, CAMHB, 5 × 10^5 CFU/mL, 37 °C, 18 h, OD600, mixtures: capital letter component 95 mg, minor letter component 5 mg): >32 µg/mL
MIC, Pa (Table 1S) ([3]; minor letter component 5 mg): > 32
MIC against MRSA [4, 10]: 8 µg/mL
MIC, Sa (Table 1S) ([4]; minor letter component 5 mg): 8
MIC, Hk (Table 1S) [5]: > 32 µg/mL
MIC, Hm (Table 1S) [6]: > 32
